Laboratory results: PMC7376718, “Flavonoids isolated from the South African weed Chromolaena odorata (Asteraceae) have pharmacological activity against uropathogens” (BMC Complementary Medicine and Therapies, 2020)
Values after ≈ are worked out from the molar mass of the structure shown.

Columns and labels:
[1] = test system: C. neoformans and A. fumigatus; assay: Mean MIC over the fungal isolates; type: cell-based; conditions: all time points of Table 3
Text: The cultures used were Escherichia coli (American Type Culture Collection, ATCC 25922) labelled as 1, E. coli isolates (B1989/17 and B1962/17) labelled as 2 and 3 from equine urine, collected from the Department of Veterinary Tropical Diseases, Faculty of Veterinary Science, University of Pretoria, South Africa, Klebsiella pneumoniae isolate from commercial chicken eggs, Enterococcus faecalis (ATCC 29212), Pseudomonas aeruginosa (ATCC 27853), Staphylococcus aureus (ATCC 29213), Candida albicans from a Gouldian finch, Aspergillus fumigatus from a chicken and Cryptococcus neoformans from a cheetah. These microbial strains were maintained on MHA or SDA for bacteria and fungi respectively, while the isolates were maintained on blood agar.
Ten mg/mL of each fraction and 1 mg/mL of isolated compounds were prepared in 10% DMSO and tested against S. aureus, E. coli, K. pneumoniae, E. faecalis, P. aeruginosa, C. albicans, C. neoformans and A. fumigatus. Cultures were prepared by inoculating each microbial strain from prepared agar plates into sterilized MHB for bacterial and SDB for fungi in sterile McCartney bottles respectively. The inoculums were placed in an orbital shaker incubator. Bacterial strains were incubated at 37 °C for 18 h. Each bacterial culture was diluted in fresh MHB and the absorbance was measured at a wavelength of 560 nm using a microplate reader (Epoch Biotek). The readings were compared to a McFarland standard No. 1 correlating to approximately 3 × 10^8 cfu/mL). For fungi strains, cultures were incubated at 30 °C for 24 h (C. albicans), 72 h (C. neoformans) and 120 h (A. fumigatus) respectively. The resultant cells and spores were washed with sterile normal saline and absorbance was measured at a wavelength of 560 nm and turbidity was adjusted to a McFarland standard 1.This was further diluted in a 1:10 ratio in SDB to a turbidity of 5 × 10^5 cfu/mL. These diluted cultures (bacterial and fungi) were used for the screening following the serial microdilution method of Eloff.

S. aureus = test system: S. aureus; design: method as in earlier work; conditions: ref [70] Teffo et al.; cited from earlier work

Structure (SMILES)	MIC [1]	Mean MIC [1]	MIC / antibacterial activity (S. aureus)
COc1ccc(C2CC(=O)c3c(OC)cc(OC)cc3O2)cc1 (racemic) [Compound 2, (±)-4′,5,7-trimethoxy flavanone]	70 ± 60 µg/mL (≈ 223 µM)	70 µg/mL	
COc1ccc(-c2oc3cc(OC)cc(O)c3c(=O)c2OC)cc1 [Compound 3, 5-hydroxy-3,7,4′-trimethoxyflavone]			no activity was recorded
